# How the values were obtained:
# A498 = test: Cytotoxicity against human A498 cells by SRB assay; assay type: functional
# SF-268 = test: Cytotoxicity against human SF268 cells by SRB assay; assay type: functional
# RPMI-8226 = test: Cytotoxicity against human RPMI8226 cells by SRB assay; assay type: functional
# HOP-62 = test: Cytotoxicity against human HOP62 cells by SRB assay; assay type: functional
# T47D = test: Cytotoxicity against human T47D cells by SRB assay; assay type: functional
# HCC 2998 = test: Cytotoxicity against human HCC2998 cells by SRB assay; assay type: functional
# OVCAR-4 = test: Cytotoxicity against human OVCAR4 cells by SRB assay; assay type: functional
# NSCLC = test: Cytotoxicity against human NSCLC cells by SRB assay; assay type: functional
# A549 = test: Cytotoxicity against human A549 cells by SRB assay; assay type: functional
# SK-MEL-2 = test: Cytotoxicity against human SK-MEL-2 cells by SRB assay; assay type: functional
# SK-MEL-5 = test: Cytotoxicity against human SK-MEL-5 cells by SRB assay; assay type: functional
# NCI-H226 = test: Cytotoxicity against human NCI-H226 cells by SRB assay; assay type: functional
# HCT-15 = test: Cytotoxicity against human HCT15 cells by SRB assay; assay type: functional
# HOP-92 = test: Cytotoxicity against human HOP92 cells by SRB assay; assay type: functional
# LOX IMVI = test: Cytotoxicity against human LOXIMVI cells by SRB assay; assay type: functional
# COLO 205 = test: Cytotoxicity against human COLO205 cells by SRB assay; assay type: functional
# [1] = Cytotoxicity against human Colon cancer cells by SRB assay; assay type: functional; settings: Cancer cell lines
# RXF 393 = test: Cytotoxicity against human RXF393 cells by SRB assay; assay type: functional
# OVCAR-5 = test: Cytotoxicity against human OVCAR5 cells by SRB assay; assay type: functional
# SNB-19 = test: Cytotoxicity against human SNB19 cells by SRB assay; assay type: functional
# [2] = Cytotoxicity against human Hs 578T cells by SRB assay; assay type: functional
# DU-145 = test: Cytotoxicity against human DU145 cells by SRB assay; assay type: functional
# SR = test: Cytotoxicity against human SR cells by SRB assay; assay type: functional
# HT-29 = test: Cytotoxicity against human HT29 cells by SRB assay; assay type: functional
# MDA-MB-231 = test: Cytotoxicity against human MDA-MB-231 cells by SRB assay; assay type: functional
# MDA-MB-435 = test: Cytotoxicity against human MDA-MB-435 cells by SRB assay; assay type: functional
# OVCAR-8 = test: Cytotoxicity against human OVCAR8 cells by SRB assay; assay type: functional
# MDA-N = test: Cytotoxicity against human MDA-N cells by SRB assay; assay type: functional
# [3] = Cytotoxicity against human 786-O cells by SRB assay; assay type: functional; settings: 786-0
# UO-31 = test: Cytotoxicity against human UO31 cells by SRB assay; assay type: functional
# NCI-H23 = test: Cytotoxicity against human NCI-H23 cells by SRB assay; assay type: functional
# [4] = Cytotoxicity against human prostate cancer cells by SRB assay; assay type: functional; settings: Cancer cell lines
# [5] = Cytotoxicity against human HL60(TB) cells by SRB assay; assay type: functional, HL-60(TB); settings: HL-60
# [6] = Cytotoxicity against human MCF7/ADR cells by SRB assay; assay type: functional; settings: NCI/ADR-RES
# CCRF-CEM = test: Cytotoxicity against human CCRF-CEM cells by SRB assay; assay type: functional
# UACC-257 = test: Cytotoxicity against human UACC257 cells by SRB assay; assay type: functional
# [7] = Cytotoxicity against human ovarian cancer cells by SRB assay; assay type: functional; settings: Cancer cell lines
# KM12 = test: Cytotoxicity against human KM12 cells by SRB assay; assay type: functional
# [8] = Cytotoxicity against human melanoma cells by SRB assay; assay type: functional; settings: Melanoma cell
# [9] = Cytotoxicity against human CNS cancer cells by SRB assay; assay type: functional; settings: Cancer cell lines
# NCI-H460 = test: Cytotoxicity against human NCI-H460 cells by SRB assay; assay type: functional
# [10] = Cytotoxicity against human renal cancer cells by SRB assay; assay type: functional; settings: Cancer cell lines
# MCF7 = test: Cytotoxicity against human MCF7 cells by SRB assay; assay type: functional
# EKVX = test: Cytotoxicity against human EKVX cells by SRB assay; assay type: functional
# OVCAR-3 = test: Cytotoxicity against human OVCAR-3 cells by SRB assay; assay type: functional
# PC-3 = test: Cytotoxicity against human PC3 cells by SRB assay; assay type: functional
# SF-295 = test: Cytotoxicity against human SF295 cells by SRB assay; assay type: functional
# M14 = test: Cytotoxicity against human M14 cells by SRB assay; assay type: functional
# Leukemia cell = test: Cytotoxicity against human Leukemia cells by SRB assay; assay type: functional
# SK-OV-3 = test: Cytotoxicity against human SKOV3 cells by SRB assay; assay type: functional
# [11] = Cytotoxicity against human breast cancer cells by SRB assay; assay type: functional; settings: Cancer cell lines
# Malme-3M = test: Cytotoxicity against human MALME-3M cells by SRB assay; assay type: functional
# UACC-62 = test: Cytotoxicity against human UACC62 cells by SRB assay; assay type: functional
# SK-MEL-28 = test: Cytotoxicity against human SK-MEL-28 cells by SRB assay; assay type: functional
# SN12C = test: Cytotoxicity against human SN12C cells by SRB assay; assay type: functional
# SW-620 = test: Cytotoxicity against human SW620 cells by SRB assay; assay type: functional
# MOLT-4 = test: Cytotoxicity against human MOLT4 cells by SRB assay; assay type: functional
# BT-549 = test: Cytotoxicity against human BT549 cells by SRB assay; assay type: functional
# ACHN = test: Cytotoxicity against human ACHN cells by SRB assay; assay type: functional
# SNB-75 = test: Cytotoxicity against human SNB75 cells by SRB assay; assay type: functional
# NCI-H522 = test: Cytotoxicity against human NCI-H522 cells by SRB assay; assay type: functional
# U-251 = test: Cytotoxicity against human U251 cells by SRB assay; assay type: functional
# K562 = test: Cytotoxicity against human K562 cells by SRB assay; assay type: functional
# NCI-H322M = test: Cytotoxicity against human NCI-H322M cells by SRB assay; assay type: functional
# CAKI-1 = test: Cytotoxicity against human Caki1 cells by SRB assay; assay type: functional
# HCT-116 = test: Cytotoxicity against human HCT116 cells by SRB assay; assay type: functional
# IGROV-1 = test: Cytotoxicity against human IGROV1 cells by SRB assay; assay type: functional
compound,measurement,setting,value
CC(=O)OC[C@H]1O[C@@H](O[C@@H]2C[C@H]3C(C)(C)[C@H](OC(C)=O)CC[C@]3(C)[C@H]3CC[C@@H]4[C@]5(CC[C@@]4(C)[C@@]32C)O[C@@H]([C@H](O)C(C)(C)O)C[C@@H]5C)[C@H](O)[C@@H](O)[C@@H]1O,GI50,A498,11.7 µM
same,GI50,SF-268,9.33 µM
same,GI50,RPMI-8226,3.39 µM
same,GI50,HOP-62,14.1 µM
same,GI50,T47D,5.62 µM
same,GI50,HCC 2998,3.63 µM
same,TGI,HCC 2998,15.9 µM
same,GI50,OVCAR-4,3.39 µM
same,TGI,NSCLC,21.8 µM
same,GI50,A549,5.13 µM
same,GI50,SK-MEL-2,6.03 µM
same,GI50,SK-MEL-5,10.7 µM
same,GI50,NCI-H226,10.7 µM
same,GI50,HCT-15,2.19 µM
same,TGI,HCT-15,5.9 µM
same,GI50,HOP-92,10 µM
same,GI50,LOX IMVI,3.63 µM
same,GI50,COLO 205,4.07 µM
same,TGI,COLO 205,14.3 µM
same,TGI,[1],12.3 µM
same,GI50,RXF 393,4.07 µM
same,GI50,OVCAR-5,5.13 µM
same,GI50,SNB-19,12.6 µM
same,GI50,[2],9.33 µM
same,GI50,DU-145,10.7 µM
same,GI50,SR,3.09 µM
same,GI50,HT-29,1.82 µM
same,TGI,HT-29,4.3 µM
same,GI50,MDA-MB-231,10.2 µM
same,GI50,MDA-MB-435,8.32 µM
same,GI50,OVCAR-8,9.33 µM
same,GI50,MDA-N,7.08 µM
same,GI50,[3],8.71 µM
same,GI50,UO-31,7.76 µM
same,GI50,NCI-H23,12.9 µM
same,TGI,[4],18.5 µM
same,GI50,[5],2.95 µM
same,GI50,[6],16.2 µM
same,GI50,CCRF-CEM,3.16 µM
same,GI50,UACC-257,11.5 µM
same,TGI,[7],20.1 µM
same,GI50,KM12,2 µM
same,TGI,KM12,7.7 µM
same,TGI,[8],20.7 µM
same,TGI,[9],22.2 µM
same,GI50,NCI-H460,6.61 µM
same,TGI,[10],20.5 µM
same,GI50,MCF7,1.07 µM
same,GI50,EKVX,9.55 µM
same,GI50,OVCAR-3,7.08 µM
same,GI50,PC-3,3.8 µM
same,GI50,SF-295,6.46 µM
same,GI50,M14,5.01 µM
same,TGI,Leukemia cell,17.3 µM
same,GI50,SK-OV-3,7.94 µM
same,TGI,[11],21.3 µM
same,GI50,Malme-3M,10.2 µM
same,GI50,UACC-62,6.31 µM
same,GI50,SK-MEL-28,10.2 µM
same,GI50,SN12C,11.2 µM
same,GI50,SW-620,10.5 µM
same,TGI,SW-620,22.9 µM
same,GI50,MOLT-4,3.16 µM
same,GI50,BT-549,12 µM
same,GI50,ACHN,9.33 µM
same,GI50,SNB-75,5.13 µM
same,GI50,NCI-H522,7.08 µM
same,GI50,U-251,10.7 µM
same,GI50,K562,4.47 µM
same,GI50,NCI-H322M,1.7 µM
same,GI50,CAKI-1,25.7 µM
same,GI50,HCT-116,3.8 µM
same,TGI,HCT-116,15.1 µM
same,GI50,IGROV-1,9.55 µM
CC(=O)OC[C@H]1O[C@@H](O[C@@H]2C[C@H]3C(C)(C)[C@H](OC(C)=O)CC[C@]3(C)[C@H]3CCC4=C([C@@H](C)C[C@@H](O)[C@H](O)C(C)(C)O)CC[C@@]4(C)[C@@]32C)[C@H](O)[C@@H](O)[C@@H]1O,GI50,A498,17.4 µM
same,GI50,SF-268,16.6 µM
same,GI50,RPMI-8226,10.5 µM
same,GI50,HOP-62,16.2 µM
same,GI50,T47D,16.6 µM
same,GI50,HCC 2998,12 µM
same,TGI,HCC 2998,25.2 µM
same,GI50,OVCAR-4,17 µM
same,TGI,NSCLC,30.3 µM
same,GI50,A549,19.1 µM
same,GI50,SK-MEL-2,16.2 µM
same,GI50,SK-MEL-5,16.2 µM
same,GI50,NCI-H226,17.4 µM
same,GI50,HCT-15,17 µM
same,TGI,HCT-15,30.8 µM
same,GI50,HOP-92,14.5 µM
same,GI50,LOX IMVI,12.6 µM
same,GI50,COLO 205,15.8 µM
same,TGI,COLO 205,30.2 µM
same,TGI,[1],30.2 µM
same,GI50,RXF 393,14.8 µM
same,GI50,OVCAR-5,17.8 µM
same,GI50,SNB-19,14.5 µM
same,GI50,[2],15.1 µM
same,GI50,DU-145,17.8 µM
same,GI50,SR,12.3 µM
same,GI50,HT-29,16.6 µM
same,TGI,HT-29,30.1 µM
same,GI50,MDA-MB-231,11.5 µM
same,GI50,MDA-MB-435,15.8 µM
same,GI50,OVCAR-8,15.8 µM
same,GI50,MDA-N,17 µM
same,GI50,[3],18.2 µM
same,GI50,UO-31,18.2 µM
same,GI50,NCI-H23,16.6 µM
same,TGI,[4],29.9 µM
same,GI50,[5],12.9 µM
same,GI50,[6],20.4 µM
same,GI50,CCRF-CEM,15.8 µM
same,GI50,UACC-257,16.2 µM
same,TGI,[7],30.4 µM
same,GI50,KM12,22.4 µM
same,TGI,KM12,37.1 µM
same,TGI,[8],29.1 µM
same,TGI,[9],28.2 µM
same,GI50,NCI-H460,15.8 µM
same,TGI,[10],30.8 µM
same,GI50,MCF7,2.88 µM
same,GI50,EKVX,17 µM
same,GI50,OVCAR-3,14.5 µM
same,GI50,PC-3,14.5 µM
same,GI50,SF-295,17.4 µM
same,GI50,M14,17.4 µM
same,TGI,Leukemia cell,32.2 µM
same,GI50,SK-OV-3,17.8 µM
same,TGI,[11],28.9 µM
same,GI50,Malme-3M,16.6 µM
same,GI50,UACC-62,12.6 µM
same,GI50,SK-MEL-28,17 µM
same,GI50,SN12C,16.2 µM
same,GI50,SW-620,17 µM
same,TGI,SW-620,30.7 µM
same,GI50,MOLT-4,13.2 µM
same,GI50,BT-549,15.5 µM
same,GI50,ACHN,17.8 µM
same,GI50,SNB-75,13.2 µM
same,GI50,NCI-H522,13.2 µM
same,GI50,U-251,6.03 µM
same,GI50,K562,12.6 µM
same,GI50,NCI-H322M,17.4 µM
same,GI50,CAKI-1,15.5 µM
same,GI50,HCT-116,14.1 µM
same,TGI,HCT-116,27.2 µM
same,GI50,IGROV-1,16.2 µM

# — ChEMBL document CHEMBL1158870, “Antitumor agents. 180. Chemical Studies and cytotoxic evaluation of cumingianosides and cumindysoside A, antileukemic triterpene glucosides with a 14,18-cycloapotirucallane skeleton” (1997)
